Measurements taken from US20230227435A1, “SMALL MOLECULE MODULATORS OF IL-17” (LEO PHARMA A/S, priority 2020, published 2023).

These molecules were tested against T1, human IL-17AA (Homo sapiens, UniProt Q16552) (assay: IL-8 release assay in human epithelial keratinocytes adult (HEKa)). Conditions: HEKa cells; 3 ng/mL HEK-human IL-17AA + 10 ng/mL human TNFalpha; 68-72 hours; IL-8 by HTRF; read-out: Rel EC50 IL-8 release assay.
T1 construct: host or cells: HEK (human embryonic kidney) cells
T1 sequence (Q16552 24-155) 1: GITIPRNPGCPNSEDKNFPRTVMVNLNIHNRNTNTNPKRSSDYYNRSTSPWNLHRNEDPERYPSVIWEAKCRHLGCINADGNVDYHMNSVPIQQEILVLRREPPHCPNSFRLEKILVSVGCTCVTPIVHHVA
T1 sequence (Q16552 24-155) 2: T1 sequence (Q16552 24-155) 1
Assay type: cell-based
Method: Example 8: IL-8 Release Assay in Human Epithelial Keratinocytes Adult (HEKa)
Keratinocytes were seeded at 3500 cells/well in 384-well ViewPlates (Perkin Elmer) in Epilife medium (Thermo Fisher) containing human keratinocyte growth supplement (HKGS) without hydrocortisone and incubated in a humid incubator at 37° C., 5% CO2, overnight. The following day growth medium was removed and 25 μl fresh Epilife medium was added. 75 nL test compound in100% DMSO was added into each well reserved for test compounds, by the use of acoustic pipetting. The remaining wells received an equal volume of DMSO only, as vehicle control, or terfenadine in DMSO, as a positive control for any cytotoxic compounds. Subsequently, another 25 μL Epilife medium was added to each well. Finally, wells containing test compounds and wells prepared to yield maximum stimulation received 25 μL of 9 ng/mL recombinant, human embryonic kidney cell (HEK)-derived human IL-17AA+30 ng/mL human TNF-alpha, in Epilife medium. Wells prepared to define 100% inhibition of IL-17 effects received 25 μL of 30 ng/mL human TNF-alpha alone, in Epilife medium. Final concentrations were 3 ng/mL HEK-human IL-17AA+10 ng/mL human TNFalpha (maximum stimulation) and 10 ng/mL human TNFalpha alone (100% inhibition, Emax), respectively. Cells were incubated for 68-72 hours in the incubator. IL-8 released from the cells was measured by the use of a commercial homogenous time-resolved fluorescence (HTRF) assay (CisBio). 2 μL cell culture supernatant was transferred to a 384-well Proxiplate. 5 μL HTRF reagent was added and the plates were incubated sealed in the dark for 3-22 hours at room temperature. Time-resolved fluorescence was read at 665 vs 620 nm, with excitation at 320 nm, and IL-8 levels were calculated as percent of controls. Reduction of the amount of secreted IL-8 indicates decreased IL-17 signaling. Concentration response curves were fitted by the use of a four-parameter logistic equation. Relative IC50 and Emax were reported from curves showing acceptable fit (r^2>0.9). Cytotoxicity was measured in the cell-containing Viewplates following addition of 7 μL PrestoBlue (Thermo Fisher) and incubation for 2.5-3 hours at room temperature, by measuring fluorescence at 615 nm (excitation at 535 nm). Fluorescence was directly proportional to the amount of metabolic activity. Reduction of fluorescence signal indicated cytotoxicity.
Compounds of the present invention were tested in the IL-8 release assay in human epithelial keratinocytes.

SMILES	EC50 [nM]
Cc1n[nH]c(C)c1-c1ccc(NC(=O)C(c2nnc(-c3ccccc3)[nH]2)C(C2CC2)C2CC2)cc1 (stereo not shown) [Example 1, 3,3-dicyclopropyl-N-[4-(3,5-dimethyl-1H-pyrazol-4-yl)phenyl]-2-(5-phenyl-4H-1,2,4-triazol-3-yl)propanamide]	290
Cc1n[nH]c(C)c1-c1ccc(NC(=O)C(c2nc(-c3ccccc3)c[nH]2)C(C2CC2)C2CC2)cc1 (stereo not shown) [Example 2, 3,3-dicyclopropyl-N-[4-(3,5-dimethyl-1H-pyrazol-4-yl)phenyl]-2-(4-phenyl-1H-imidazol-2-yl)propanamide]	310
Cc1n[nH]c(C)c1-c1ccc(NC(=O)C(c2nc(-c3ccccc3)c(Cl)[nH]2)C(C2CC2)C2CC2)cc1 (stereo not shown) [Example 3, 2-(5-chloro-4-phenyl-1H-imidazol-2-yl)-3,3-dicyclopropyl-N-[4-(3,5-dimethyl-1H-pyrazol-4-yl)phenyl]propanamide]	3100
Cc1n[nH]c(C)c1-c1ccc(NC(=O)C(c2nnc[nH]2)C(C2CC2)C2CC2)cc1 (stereo not shown) [Example 4, 3,3-dicyclopropyl-N-[4-(3,5-dimethyl-1H-pyrazol-4-yl)phenyl]-2-(4H-1,2,4-triazol-3-yl)propanamide]	2900
Cc1n[nH]c(C)c1-c1ccc(NC(=O)C(c2nnc(-c3ccccc3F)[nH]2)C(C2CC2)C2CC2)cc1 (stereo not shown) [Example 5, 3,3-dicyclopropyl-N-[4-(3,5-dimethyl-1H-pyrazol-4-yl)phenyl]-2-[5-(2-fluorophenyl)-4H-1,2,4-triazol-3-yl]propanamide]	390
Cc1n[nH]c(C)c1-c1ccc(NC(=O)C(c2ncc[nH]2)C(C2CC2)C2CC2)cc1 (stereo not shown) [Example 6, 3,3-dicyclopropyl-N-[4-(3,5-dimethyl-1H-pyrazol-4-yl)phenyl]-2-(1H-imidazol-2-yl)propanamide]	1300
Cc1n[nH]c(C)c1-c1ccc(NC(=O)C(c2nc(-c3ccccc3)c(C)[nH]2)C(C2CC2)C2CC2)cc1 (stereo not shown) [Example 7, 3,3-dicyclopropyl-N-[4-(3,5-dimethyl-1H-pyrazol-4-yl)phenyl]-2-(5-methyl-4-phenyl-1H-imidazol-2-yl)propanamide]	800
COc1ccccc1-c1cnc(C(C(=O)Nc2ccc(-c3c(C)n[nH]c3C)cc2)C(C2CC2)C2CC2)[nH]1 (stereo not shown) [Example 9, 3,3-dicyclopropyl-N-[4-(3,5-dimethyl-1H-pyrazol-4-yl)phenyl]-2-[5-(2-methoxyphenyl)-1H-imidazol-2-yl]propanamide]	450
Cc1n[nH]c(C)c1-c1ccc(NC(=O)C(c2nnc(C3CCCC3)[nH]2)C(C2CC2)C2CC2)cc1 (stereo not shown) [Example 10, 2-(5-cyclopentyl-4H-1,2,4-triazol-3-yl)-3,3-dicyclopropyl-N-[4-(3,5-dimethyl-1H-pyrazol-4-yl)phenyl]propanamide]	1900
Cc1n[nH]c(C)c1-c1ccc(NC(=O)C(c2nnc(-c3ccnn3C(C)C)[nH]2)C(C2CC2)C2CC2)nc1F (stereo not shown) [Example 11, 3,3-dicyclopropyl-N-[5-(3,5-dimethyl-1H-pyrazol-4-yl)-6-fluoro-2-pyridyl]-2-[5-(2-isopropylpyrazol-3-yl)-4H-1,2,4-triazol-3-yl]propanamide]	93

More lines, now with the values ahead:

EC50 [nM]	SMILES
27	Cc1n[nH]c(C)c1-c1ccc(NC(=O)C(c2nnc(-c3ccnn3C(C)C)[nH]2)C(C2CC2)C2CC2)cc1 (single isomer, unassigned) [Example 70, 3,3-dicyclopropyl-N-[4-(3,5-dimethyl-1H-pyrazol-4-yl)phenyl]-2-[5-(2-isopropylpyrazol-3-yl)-4H-1,2,4-triazol-3-yl]propanamide]
> 625	Cc1n[nH]c(C)c1-c1ccc(NC(=O)C(c2nnc(-c3ccnn3C(C)C)[nH]2)C(C2CC2)C2CC2)cc1 (single isomer, unassigned) [Example 71, 3,3-dicyclopropyl-N-[4-(3,5-dimethyl-1H-pyrazol-4-yl)phenyl]-2-[5-(2-isopropylpyrazol-3-yl)-4H-1,2,4-triazol-3-yl]propanamide]
140	Cc1n[nH]c(C)c1-c1ccc(NC(=O)C(c2nnc(-c3ccnn3C(C)C)[nH]2)C(C2CC2)C2CC2)c(F)c1 (stereo not shown) [Example 12, 3,3-dicyclopropyl-N-[4-(3,5-dimethyl-1H-pyrazol-4-yl)-2-fluoro-phenyl]-2-[5-(2-isopropylpyrazol-3-yl)-4H-1,2,4-triazol-3-yl]propanamide]
170	Cc1nonc1-c1nnc(C(C(=O)Nc2ccc(-c3c(C)n[nH]c3C)cc2)C(C2CC2)C2CC2)[nH]1 (stereo not shown) [Example 13, 3,3-dicyclopropyl-N-[4-(3,5-dimethyl-1H-pyrazol-4-yl)phenyl]-2-[5-(4-methyl-1,2,5-oxadiazol-3-yl)-4H-1,2,4-triazol-3-yl]propanamide]
300	Cc1n[nH]c(C)c1-c1ccc(NC(=O)C(c2nnc(-c3c(F)cnn3C)[nH]2)C(C2CC2)C2CC2)cc1 (stereo not shown) [Example 14, 3,3-dicyclopropyl-N-[4-(3,5-dimethyl-1H-pyrazol-4-yl)phenyl]-2-[5-(4-fluoro-2-methyl-pyrazol-3-yl)-4H-1,2,4-triazol-3-yl]propanamide]
350	Cc1n[nH]c(C)c1-c1ccc(NC(=O)C(c2nnc(Cc3cccnc3)[nH]2)C(C2CC2)C2CC2)cc1 (stereo not shown) [Example 15, 3,3-dicyclopropyl-N-[4-(3,5-dimethyl-1H-pyrazol-4-yl)phenyl]-2-[5-(3-pyridylmethyl)-4H-1,2,4-triazol-3-yl]propanamide]
1500	Cc1n[nH]c(C)c1-c1ccc(NC(=O)C(c2nnc(Cc3cc[nH]n3)[nH]2)C(C2CC2)C2CC2)cc1 (stereo not shown) [Example 16, 3,3-dicyclopropyl-N-[4-(3,5-dimethyl-1H-pyrazol-4-yl)phenyl]-2-[5-(1H-pyrazol-3-ylmethyl)-4H-1,2,4-triazol-3-yl]propanamide]
240	Cc1n[nH]c(C)c1-c1ccc(NC(=O)C(c2nnc(Cc3ccccc3)[nH]2)C(C2CC2)C2CC2)cc1 (stereo not shown) [Example 17, 2-(5-benzyl-4H-1,2,4-triazol-3-yl)-3,3-dicyclopropyl-N-[4-(3,5-dimethyl-1H-pyrazol-4-yl)phenyl]propanamide]
310	Cc1n[nH]c(C)c1-c1ccc(NC(=O)C(c2nnc(-c3ccccc3Cl)[nH]2)C(C2CC2)C2CC2)cc1 (stereo not shown) [Example 18, 2-[5-(2-chlorophenyl)-4H-1,2,4-triazol-3-yl]-3,3-dicyclopropyl-N-[4-(3,5-dimethyl-1H-pyrazol-4-yl)phenyl]propanamide]
620	COc1ccccc1-c1nnc(C(C(=O)Nc2ccc(-c3c(C)n[nH]c3C)cc2)C(C2CC2)C2CC2)[nH]1 (stereo not shown) [Example 19, 3,3-dicyclopropyl-N-[4-(3,5-dimethyl-1H-pyrazol-4-yl)phenyl]-2-[5-(2-methoxyphenyl)-4H-1,2,4-triazol-3-yl]propanamide]
990	Cc1n[nH]c(C)c1-c1ccc(NC(=O)C(c2nnc(-c3cnn(C)c3)[nH]2)C(C2CC2)C2CC2)cc1 (stereo not shown) [Example 20, 3,3-dicyclopropyl-N-[4-(3,5-dimethyl-1H-pyrazol-4-yl)phenyl]-2-[5-(1-methylpyrazol-4-yl)-4H-1,2,4-triazol-3-yl]propanamide]
200	Cc1n[nH]c(C)c1-c1ccc(NC(=O)C(c2nnc(-c3ccnn3C)[nH]2)C(C2CC2)C2CC2)cc1 (stereo not shown) [Example 21, 3,3-dicyclopropyl-N-[4-(3,5-dimethyl-1H-pyrazol-4-yl)phenyl]-2-[5-(2-methylpyrazol-3-yl)-4H-1,2,4-triazol-3-yl]propanamide]
